# Patent publication US20200261391A1, “METHODS OF REDUCING THE RISK OF A CARDIOVASCULAR EVENT IN A STATIN-TREATED SUBJECT BY INCREASING SERUM AND PLASMA EPA AND DPA LEVELS” (Amarin Pharmaceuticals Ireland Limited, priority 2019, published 2020)
# Test system: TG, non-HDL-C, LDL-C, HDL-C, apo B, hsCRP
# Assay: REDUCE-IT trial: fasting lipid, lipoprotein and inflammatory marker data over time
# Type: in vivo, human
# Method: Fasting Lipid Profile: The fasting lipid panel included: TG, TC, LDL-C, HDL-C, non-HDL-C, and VLDL-C. At all visits, LDL-C was calculated using the Friedewald equation. At Visit 1 and Visit 1.1 direct LDL-C were used if at the same visit TG>400 mg/dL (4.52 mmol/L). These LDL-C values were used for the evaluation of the LDL-C inclusion criterion (LDL-C qualifying measurements for randomization) and for the assessment of changes in the statin therapy when LDL-C was not at goal. […] In addition, irrespective of the TG levels, at Visit 2 (0 Months of Follow-up, baseline) and at Visit 4 (12 Months of Follow-up), LDL-C were measured by preparative ultracentrifugation. These preparative ultracentrifugation LDL-C measurements were used in the statistical analysis including the calculation of the percent change from baseline (1 year versus baseline). Hopkins LDL-C was calculated for each visit.
# Biomarkers Assays: The biomarker assays included: hsCRP, Apo B and hsTnT.
# The fasting lipid panel was tested at Screening (Visit 1 or Visit 1.1), Randomization visit (Visit 2; Day 0), Visit 3 (Day 120; ˜4 Months) and all other follow-up visits including the last visit. For change from baseline to 1 year preparative ultracentrifugation measurements for LDL-C were analyzed, unless this value was missing. If the LDL-C preparative ultracentrifugation values were missing, then another LDL-C value was used, with prioritization of values obtained from LDL-C Direct measurements, followed by LDL-C derived by the Friedewald calculation (only for subjects with TG<400 mg/dL), and finally LDL-C derived using the calculation published by Hopkins University investigators (Martin S S, Blaha M J, Elshazly M B, et al. Comparison of a novel method vs the Friedewald equation for estimating low-density lipoprotein cholesterol levels from the standard lipid profile. JAMA. 2013; 310:2061-8.). In addition, change from baseline to day 120 in LDL-C utilizing Friedewald's and Hopkins methods was analyzed, using the arithmetic mean of LDL-C obtained at Visit 2 (Day 0) and the preceding Visit 1 (or Visit 1.1). If one of these values was missing, the single available LDL-C value was used. LDL-C according to Hopkins was calculated at each visit.
# The randomization visit was considered Baseline. If a baseline value was not available from the randomization visit, then the latest screening value was used. For measurements of lipids, lipoproteins and inflammatory markers, the change and the percent change were summarized at each visit. Since these biomarkers are typically not normally distributed, the Wilcoxon rank-sum test was used for treatment comparisons of the percent change from baseline, and medians and quartiles were provided for each treatment group. The medians of the differences between the treatment groups and 95% CIs were estimated with the Hodges-Lehmann method. In addition, shift-tables were generated as appropriate.
smiles,measurement,setting,value
"CC/C=C\C/C=C\C/C=C\C/C=C\C/C=C\CCCC(=O)OCC [icosapent ethyl, eicosapentaenoic acid ethyl ester]",Apo B Median % Change from Baseline,Last Visit,−2.5%
same,Apo B Median Absolute Change from Baseline,Last Visit,-2.0 mg/dL
same,Apo B Median Observed Value,Last Visit,80.0 mg/dL
same,HDL-C Median % Change from Baseline,Last Visit,2.5%
same,HDL-C Median Absolute Change from Baseline,Last Visit,1.0 mg/dL
same,HDL-C Median Observed Value,Last Visit,41.0 mg/dL
same,LDL-C Hopkins Median % Change from Baseline,Last Visit,−1.2%
same,LDL-C Hopkins Median Absolute Change from Baseline,Last Visit,-1.0 mg/dL
same,LDL-C Hopkins Median Observed Value,Last Visit,84.0 mg/dL
same,LDL-C derived Median % Change from Baseline,Last Visit,3.1%
same,LDL-C derived Median Absolute Change from Baseline,Last Visit,2.0 mg/dL
same,LDL-C derived Median Observed Value,Last Visit,77.0 mg/dL
same,Log hsCRP Median % Change from Baseline,Last Visit,−23.1%
same,Log hsCRP Median Absolute Change from Baseline,Last Visit,−0.1 mg/L
same,Log hsCRP Median Observed Value,Last Visit,0.6 mg/L
same,Non-HDL-C Median % Change from Baseline,Last Visit,−4.4%
same,Non-HDL-C Median Absolute Change from Baseline,Last Visit,-5.0 mg/dL
same,Non-HDL-C Median Observed Value,Last Visit,112.0 mg/dL
same,Triglycerides Median % Change from Baseline,Last Visit,−21.6%
same,Triglycerides Median Absolute Change from Baseline,Last Visit,-45.0 mg/dL
same,Triglycerides Median Observed Value,Last Visit,170.0 mg/dL
same,hsCRP Median % Change from Baseline,Last Visit,−12.6%
same,hsCRP Median Absolute Change from Baseline,Last Visit,-0.2 mg/L
same,hsCRP Median Observed Value,Last Visit,1.8 mg/L
same,Apo B Between Group Difference Median % Change from Baseline,"Last Visit, vs placebo",−6.7%
same,Apo B Between Group Difference Median Absolute Change from Baseline,"Last Visit, vs placebo",-5.0 mg/dL
same,HDL-C Between Group Difference Median % Change from Baseline,"Last Visit, vs placebo",−3.0%
same,HDL-C Between Group Difference Median Absolute Change from Baseline,"Last Visit, vs placebo",-1.0 mg/dL
same,LDL-C Hopkins Between Group Difference Median % Change from Baseline,"Last Visit, vs placebo",−7.4%
same,LDL-C Hopkins Between Group Difference Median Absolute Change from Baseline,"Last Visit, vs placebo",-6.2 mg/dL
same,LDL-C derived Between Group Difference Median % Change from Baseline,"Last Visit, vs placebo",−6.6%
same,LDL-C derived Between Group Difference Median Absolute Change from Baseline,"Last Visit, vs placebo",-5.0 mg/dL
same,Log hsCRP Between Group Difference Median % Change from Baseline,"Last Visit, vs placebo",−21.2%
same,Log hsCRP Between Group Difference Median Absolute Change from Baseline,"Last Visit, vs placebo",−0.4 mg/L
same,Non-HDL-C Between Group Difference Median % Change from Baseline,"Last Visit, vs placebo",−8.6%
same,Non-HDL-C Between Group Difference Median Absolute Change from Baseline,"Last Visit, vs placebo",-10.0 mg/dL
same,Triglycerides Between Group Difference Median % Change from Baseline,"Last Visit, vs placebo",−14.1%
same,Triglycerides Between Group Difference Median Absolute Change from Baseline,"Last Visit, vs placebo",-32.0 mg/dL
same,hsCRP Between Group Difference Median % Change from Baseline,"Last Visit, vs placebo",−37.6%
same,hsCRP Between Group Difference Median Absolute Change from Baseline,"Last Visit, vs placebo",-0.8 mg/L
same,HDL-C Median % Change from Baseline,Month 4,−2.8%
same,HDL-C Median Absolute Change from Baseline,Month 4,-1.0 mg/dL
same,HDL-C Median Observed Value,Month 4,39.0 mg/dL
same,LDL-C Hopkins Median % Change from Baseline,Month 4,−2.0%
same,LDL-C Hopkins Median Absolute Change from Baseline,Month 4,-1.6 mg/dL
same,LDL-C Hopkins Median Observed Value,Month 4,83.6 mg/dL
same,Non-HDL-C Median % Change from Baseline,Month 4,−4.0%
same,Non-HDL-C Median Absolute Change from Baseline,Month 4,-4.5 mg/dL
same,Non-HDL-C Median Observed Value,Month 4,113.0 mg/dL
same,Triglycerides Median % Change from Baseline,Month 4,−18.6%
same,Triglycerides Median Absolute Change from Baseline,Month 4,-37.5 mg/dL
same,Triglycerides Median Observed Value,Month 4,177.0 mg/dL
same,HDL-C Between Group Difference Median % Change from Baseline,"Month 4, vs placebo",−7.2%
same,HDL-C Between Group Difference Median Absolute Change from Baseline,"Month 4, vs placebo",-3.0 mg/dL
same,LDL-C Hopkins Between Group Difference Median % Change from Baseline,"Month 4, vs placebo",−10.3%
same,LDL-C Hopkins Between Group Difference Median Absolute Change from Baseline,"Month 4, vs placebo",-8.7 mg/dL
same,Non-HDL-C Between Group Difference Median % Change from Baseline,"Month 4, vs placebo",−12.2%
same,Non-HDL-C Between Group Difference Median Absolute Change from Baseline,"Month 4, vs placebo",-14.3 mg/dL
same,Triglycerides Between Group Difference Median % Change from Baseline,"Month 4, vs placebo",−20.1%
same,Triglycerides Between Group Difference Median Absolute Change from Baseline,"Month 4, vs placebo",-45.5 mg/dL
same,HDL-C Median % Change from Baseline,Year 1,−2.6%
same,HDL-C Median Absolute Change from Baseline,Year 1,-1.0 mg/dL
same,HDL-C Median Observed Value,Year 1,39.0 mg/dL
same,LDL-C Hopkins Median % Change from Baseline,Year 1,−1.2%
same,LDL-C Hopkins Median Absolute Change from Baseline,Year 1,-1.1 mg/dL
same,LDL-C Hopkins Median Observed Value,Year 1,85.3 mg/dL
same,LDL-C derived Median % Change from Baseline,Year 1,3.1%
same,LDL-C derived Median Absolute Change from Baseline,Year 1,2.0 mg/dL
same,LDL-C derived Median Observed Value,Year 1,77.0 mg/dL
same,Non-HDL-C Median % Change from Baseline,Year 1,−3.6%
same,Non-HDL-C Median Absolute Change from Baseline,Year 1,-4.0 mg/dL
same,Non-HDL-C Median Observed Value,Year 1,113.0 mg/dL
same,Triglycerides Median % Change from Baseline,Year 1,−18.3%
same,Triglycerides Median Absolute Change from Baseline,Year 1,-39.0 mg/dL
same,Triglycerides Median Observed Value,Year 1,175.0 mg/dL
same,HDL-C Between Group Difference Median % Change from Baseline,"Year 1, vs placebo",−6.3%
same,HDL-C Between Group Difference Median Absolute Change from Baseline,"Year 1, vs placebo",-2.5 mg/dL
same,LDL-C Hopkins Between Group Difference Median % Change from Baseline,"Year 1, vs placebo",−11.4%
same,LDL-C Hopkins Between Group Difference Median Absolute Change from Baseline,"Year 1, vs placebo",-9.6 mg/dL
same,LDL-C derived Between Group Difference Median % Change from Baseline,"Year 1, vs placebo",−6.6%
same,LDL-C derived Between Group Difference Median Absolute Change from Baseline,"Year 1, vs placebo",-5.0 mg/dL
same,Non-HDL-C Between Group Difference Median % Change from Baseline,"Year 1, vs placebo",−13.1%
same,Non-HDL-C Between Group Difference Median Absolute Change from Baseline,"Year 1, vs placebo",-15.5 mg/dL
same,Triglycerides Between Group Difference Median % Change from Baseline,"Year 1, vs placebo",−19.7%
same,Triglycerides Between Group Difference Median Absolute Change from Baseline,"Year 1, vs placebo",-44.5 mg/dL
same,Apo B Median Year 1,Year 1 in Table 18,80.0 mg/dL
same,hsCRP Median Year 1,Year 1 in Table 18,1.8 mg/L
same,"Apo B Median Between Group Difference at Year 1, % Change from Baseline","Year 1 in Table 18, vs placebo",−9.7%
same,"Apo B Median Between Group Difference at Year 1, Absolute Change from Baseline","Year 1 in Table 18, vs placebo",-8.0 mg/dL
same,"hsCRP Median Between Group Difference at Year 1, % Change from Baseline","Year 1 in Table 18, vs placebo",−39.9%
same,"hsCRP Median Between Group Difference at Year 1, Absolute Change from Baseline","Year 1 in Table 18, vs placebo",-0.9 mg/L
same,Apo B Median % Change from Baseline,Year 2,−2.5%
same,Apo B Median Absolute Change from Baseline,Year 2,-2.0 mg/dL
